{
  "source": "patent US9616245B2",
  "about": "“Method of treating cells with drug and radiation according to proton density” (priority 2009, dated 2017)",
  "key": {"protein kinase C (PKC)": {"test_system": "protein kinase C (PKC)", "conditions": "cited from earlier work"}, "cancer cells": {"test_system": "cancer cells", "conditions": "cited from earlier work"}, "[1]": {"test_system": "peripheral blood monocytes and alveolar macrophages", "conditions": "cited from earlier work"}, "IkB kinase": {"test_system": "IkB kinase", "conditions": "cited from earlier work"}, "[2]": {"biological_target": "inducible nitric oxide synthase (iNOS) (Homo sapiens, UniProt P35228)", "sequence (P35228 whole entry, species assumed)": "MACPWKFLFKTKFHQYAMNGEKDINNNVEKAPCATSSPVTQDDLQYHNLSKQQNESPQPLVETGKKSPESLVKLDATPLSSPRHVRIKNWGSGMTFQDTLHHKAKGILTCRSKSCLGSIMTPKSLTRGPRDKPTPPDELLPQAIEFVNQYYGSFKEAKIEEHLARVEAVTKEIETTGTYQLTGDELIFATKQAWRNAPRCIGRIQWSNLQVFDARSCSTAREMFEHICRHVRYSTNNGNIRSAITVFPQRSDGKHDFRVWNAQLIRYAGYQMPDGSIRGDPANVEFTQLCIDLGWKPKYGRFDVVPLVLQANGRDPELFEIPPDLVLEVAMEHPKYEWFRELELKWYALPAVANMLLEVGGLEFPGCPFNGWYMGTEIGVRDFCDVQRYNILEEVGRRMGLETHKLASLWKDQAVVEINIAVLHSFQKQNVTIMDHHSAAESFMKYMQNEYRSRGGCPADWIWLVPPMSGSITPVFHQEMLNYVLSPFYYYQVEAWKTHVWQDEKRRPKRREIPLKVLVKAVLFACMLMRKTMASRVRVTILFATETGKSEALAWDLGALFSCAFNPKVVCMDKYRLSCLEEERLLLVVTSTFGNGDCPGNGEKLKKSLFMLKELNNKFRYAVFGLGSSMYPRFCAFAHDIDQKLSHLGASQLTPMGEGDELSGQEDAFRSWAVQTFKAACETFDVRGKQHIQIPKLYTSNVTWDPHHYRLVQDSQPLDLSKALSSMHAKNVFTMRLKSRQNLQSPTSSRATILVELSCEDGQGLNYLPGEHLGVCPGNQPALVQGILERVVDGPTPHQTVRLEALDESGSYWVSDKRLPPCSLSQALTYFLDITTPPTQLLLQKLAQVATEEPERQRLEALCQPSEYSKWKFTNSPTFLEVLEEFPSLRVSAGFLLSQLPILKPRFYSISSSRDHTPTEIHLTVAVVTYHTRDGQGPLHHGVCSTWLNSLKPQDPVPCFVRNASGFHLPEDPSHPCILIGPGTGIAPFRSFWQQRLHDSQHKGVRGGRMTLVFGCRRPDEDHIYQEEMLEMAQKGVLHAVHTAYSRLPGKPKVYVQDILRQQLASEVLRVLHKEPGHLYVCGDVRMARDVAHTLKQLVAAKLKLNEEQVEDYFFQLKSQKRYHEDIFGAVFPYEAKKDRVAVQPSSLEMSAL", "conditions": "cited from earlier work"}, "cycloxygenase": {"test_system": "cycloxygenase", "conditions": "cited from earlier work"}, "lipoxygenase": {"test_system": "lipoxygenase", "conditions": "cited from earlier work"}, "[3]": {"test_system": "head and neck tumor cell lines", "conditions": "Clin. Cancer Res. 2005; 11(19); cited from earlier work"}},
  "note": "Read-outs that look alike come from different tables or passages of the source.",
  "data": [
    {"smiles": "COc1cc(/C=C/C(=O)CC(=O)/C=C/c2ccc(O)c(OC)c2)ccc1O", "note": "[Curcumin]", "values": [
      {"measurement": "inhibition of phorbol ester induced PKC activity", "setting": "protein kinase C (PKC)", "value": "inhibits"},
      {"measurement": "apoptosis (programmed cell death)", "setting": "cancer cells", "value": "induce apoptosis"},
      {"measurement": "production of inflammatory cytokines", "setting": "[1]", "value": "inhibit production"},
      {"measurement": "inhibition of IkB kinase", "setting": "IkB kinase", "value": "potent inhibitor"},
      {"measurement": "inhibition of iNOS", "setting": "[2]", "value": "inhibits"},
      {"measurement": "inhibition of cycloxygenase", "setting": "cycloxygenase", "value": "inhibits"},
      {"measurement": "inhibition of lipoxygenase", "setting": "lipoxygenase", "value": "inhibits"},
      {"measurement": "growth of tumor cell lines", "setting": "[3]", "value": "suppresses growth"}
    ]},
    {"smiles": "O=P1(N(CCCl)CCCl)NCCCO1", "note": "(stereo not shown) [Cyclophosphamide]", "values": [
      {"measurement": "bone marrow / blood counts", "setting": "recurrent Meduloblastoma; first leg, without FORN, metronomic mode with three anti angiogenic drugs, after 2 weeks", "value": "severe bone marrow depression"}
    ]},
    {"smiles": "COc1cc([C@@H]2c3cc4c(cc3[C@@H](O[C@@H]3O[C@@H]5CO[C@@H](C)O[C@H]5[C@H](O)[C@H]3O)[C@H]3COC(=O)[C@H]23)OCO4)cc(OC)c1O", "note": "[VP 16, Etoposide]", "values": [
      {"measurement": "bone marrow / blood counts", "setting": "recurrent Meduloblastoma; human, in vivo", "value": "severe bone marrow depression"}
    ]}
  ]
}
